IC50 data for 30 molecules are collected here from US20150031668A1, “CHROMAN DERIVATIVES AS TRPM8 INHIBITORS” (AMGEN INC., priority 2013, published 2015).

Each structure is given as a SMILES string. Counter-ions that a name gives are not always drawn. Like-named read-outs stand apart in the source and are kept apart here.

This test concerns the target T1, human TRPM8 (Homo sapiens, UniProt Q7Z2W7).
T1 construct: expressed in transfected cells; host or cells: Chinese hamster ovary (CHO) cells, T-REx tetracycline-inducible expression system (Invitrogen); co-transfected with pcDNA3.1 aequorin
As to the kind of experiment: Luminescence readout assay for measuring intracellular calcium (aequorin, CHO cells expressing human TRPM8; icilin, L-menthol or cold activation). It counts as cell-based. Summed up: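 Activation was by 1 μM icilin, 100 μM L-menthol (test compound 2.5 min ahead) or cold buffer below 10° C (compound 1 min ahead). Calcium rise measured as aequorin luminescence in CHO cells with tetracycline-inducible human TRPM8.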

Setting [1] is: CHO cells expressing human TRPM8, icilin activation (1 μM), aequorin luminescence, read-out: hTRPM8 IC50.

T1 sequence (Q7Z2W7 whole entry): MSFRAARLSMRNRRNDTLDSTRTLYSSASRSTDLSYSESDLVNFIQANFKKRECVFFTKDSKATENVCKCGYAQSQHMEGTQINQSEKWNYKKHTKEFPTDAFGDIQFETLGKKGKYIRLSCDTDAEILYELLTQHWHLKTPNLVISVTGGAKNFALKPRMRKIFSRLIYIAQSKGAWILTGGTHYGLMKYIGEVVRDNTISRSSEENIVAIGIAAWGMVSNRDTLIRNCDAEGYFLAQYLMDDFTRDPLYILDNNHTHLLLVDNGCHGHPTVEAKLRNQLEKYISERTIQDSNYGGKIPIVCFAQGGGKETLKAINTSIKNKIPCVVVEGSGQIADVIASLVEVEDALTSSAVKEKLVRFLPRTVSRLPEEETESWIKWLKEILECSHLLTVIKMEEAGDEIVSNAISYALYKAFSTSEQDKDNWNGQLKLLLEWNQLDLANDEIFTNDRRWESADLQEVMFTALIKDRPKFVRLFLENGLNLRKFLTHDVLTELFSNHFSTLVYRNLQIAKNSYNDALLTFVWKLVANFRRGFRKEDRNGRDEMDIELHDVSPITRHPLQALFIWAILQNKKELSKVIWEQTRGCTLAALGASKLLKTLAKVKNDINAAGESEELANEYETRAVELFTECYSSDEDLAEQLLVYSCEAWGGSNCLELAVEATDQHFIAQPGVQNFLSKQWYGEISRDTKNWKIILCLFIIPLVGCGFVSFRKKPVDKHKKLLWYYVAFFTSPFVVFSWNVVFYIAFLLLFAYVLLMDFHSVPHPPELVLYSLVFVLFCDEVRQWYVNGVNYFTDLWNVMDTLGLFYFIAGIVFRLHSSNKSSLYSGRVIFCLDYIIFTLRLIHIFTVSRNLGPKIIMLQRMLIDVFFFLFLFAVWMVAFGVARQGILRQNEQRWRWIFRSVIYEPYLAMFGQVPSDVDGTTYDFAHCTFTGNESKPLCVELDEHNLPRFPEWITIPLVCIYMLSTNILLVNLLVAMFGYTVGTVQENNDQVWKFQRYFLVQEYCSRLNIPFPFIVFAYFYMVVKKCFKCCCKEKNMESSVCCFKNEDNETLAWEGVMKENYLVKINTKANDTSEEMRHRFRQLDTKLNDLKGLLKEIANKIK

The IC50 is the midpoint of a concentration-inhibition curve. Take `Cn1ccc(C(=O)N[C@]2(c3ccc(OC(F)(F)F)cc3)CCOc3cccnc32)n1` [Example 227, (S)-1-methyl-N-(4-(4-(trifluoromethoxy)phenyl)-3,4-dihydro-2H-pyrano[3,2-b]pyridin-4-yl)-1H-pyrazole-3-carboxamide formate]: the half-maximal inhibitory concentration (IC50) under setting [1] came to 58.7 nM.

Turning to `Cn1nccc1C(=O)N[C@]1(c2ccc(OC(F)(F)F)cc2)CCOc2cccnc21` [Example 228, (S)-1-methyl-N-(4-(4-(trifluoromethoxy)phenyl)-3,4-dihydro-2H-pyrano[3,2-b]pyridin-4-yl)-lH-pyrazole-5-carboxamide formate_], the 50% inhibitory concentration (IC50) under setting [1] is 105 nM.

On to `O=C(N[C@]1(c2ccc(OC(F)(F)F)cc2)CCOc2cccnc21)c1cccs1` [Example 229, (S)-N-(4-(4-(trifluoromethoxy)phenyl)-3,4-dihydro-2H-pyrano[3,2-b]pyridin-4-yl)thiophene-2-carboxamide fomiate], for which the IC50 under setting [1] is 145 nM.

In the case of `O=C(N[C@]1(c2ccc(OC(F)(F)F)cc2)CCOc2cccnc21)c1ccsc1` [Example 230, (S)-N-(4-(4-(trifluoromethoxy)phenyl)-3,4-dihydro-2H-pyrano[3,2-b]pyridin-4-yl)thiophene-3-carboxamide formate], the IC50 under setting [1] came out at 20.1 nM.

Take `O=C(N[C@]1(c2ccc(OC(F)(F)F)cc2)CCOc2cccnc21)c1cscn1` [Example 231, (S)-N-(4-(4-(trifluoromethoxy)phenyl)-3,4-dihydro-2H-pyrano[3,2-b]pyridin-4-yl)thiazole-4-carboxamide formate]: the half-inhibitory concentration (IC50) under setting [1] turned out to be 45.2 nM.

As to `O=C(N[C@]1(c2ccc(OC(F)(F)F)cc2)CCOc2cccnc21)c1ccsn1` [Example 232, (S)-N-(4-(4-(trifluoromethoxy)phenyl)-3,4-dihydro-2H-pyrano[3,2-b]pyridin-4-yl)isothiazole-3-carboxamide formate], under setting [1], the half-maximal inhibitory concentration (IC50) turned out to be 25.8 nM.

Turning to `O=C(N[C@]1(c2ccc(OC(F)(F)F)cc2)CCOc2cccnc21)c1cncs1` [Example 233, (S)-N-(4-(4-(trifluoromethoxy)phenyl)-3,4-dihydro-2H-pyrano[3,2-b]pyridin-4-yl)thiazole-5-carboxamide formate], under setting [1], the IC50 turned out to be 222 nM.

Turning to `O=C(N[C@]1(c2ccc(OC(F)(F)F)cc2)CCOc2cccnc21)c1c[nH]c2ccccc12` [Example 234, (S)-N-(4-(4-(trifluoromethoxy)phenyl)-3,4-dihydro-2H-pyrano[3,2-b]pyridin-4-yl)-1H-indole-3-carboxamide foraiate], the concentration for half-maximal inhibition (IC50) under setting [1] came out at 56.8 nM.

As to `O=C(N[C@]1(c2ccc(OC(F)(F)F)cc2)CCOc2cccnc21)c1ccc2cc[nH]c2c1` [Example 235, (S)-N-(4-(4-(trifluoromethoxy)phenyl)-3,4-dihydro-2H-pyrano[3,2-b]pyridin-4-yl)-1H-indole-6-carboxamide formate], the IC50 under setting [1] came to 35.7 nM.

As for `O=C(N[C@]1(c2ccc(OC(F)(F)F)cc2)CCOc2cccnc21)c1cc2ccccc2o1` [Example 236, (S)-N-(4-(4-(trifluoromethoxy)phenyl)-3,4-dihydro-2H-pyrano[3,2-b]pyridin-4-yl)benzofuran-2-carboxamide formate], under setting [1], the IC50 came to 66.5 nM.

`O=C(N[C@]1(c2ccc(OC(F)(F)F)cc2)CCOc2cccnc21)c1ccc2[nH]cnc2c1` [Example 237, (S)-N-(4-(4-(trifluoromethoxy)phenyl)-3,4-dihydro-2H-pyrano[3,2-b]pyridin-4-yl)1lH-benzo[d]imidazole-5-carboxamide formate]: the IC50 came out at 4.07 nM.

With `O=C(N[C@]1(c2ccc(OC(F)(F)F)cc2)CCOc2cccnc21)c1cccc2[nH]cnc12` [Example 238, (S)-N-(4-(4-(trifluoromethoxy)phenyl)-3,4-dihydro-2H-pyrano[3,2-b]pyridin-4-yl)-1H-benzo[d]imidazole-4-carboxamide formate], the IC50 under setting [1] was 41.4 nM.

Regarding `O=C(N[C@]1(c2ccc(OC(F)(F)F)cc2)CCOc2cccnc21)c1cn2ccccc2n1` [Example 239, (S)-N-(4-(4-(trifluoromethoxy)phenyl)-3,4-dihydro-2H-pyrano[3,2-b]pyridin-4-yl)imidazo[1,2-a] pyridine-2-carboxamide formate], the IC50 under setting [1] is 34.6 nM.

On to `O=C(N[C@]1(c2ccc(OC(F)(F)F)cc2)CCOc2cccnc21)c1ccc2nccn2c1` [Example 240, (S)-N-(4-(4-(trifluoromethoxy)phenyl)-3,4-dihydro-2H-pyrano[3,2-b]pyridin-4-yl)imidazo[1,2-a] pyridine-6-carboxamide formate], for which the IC50 under setting [1] is 40.6 nM.

Regarding `O=C(N[C@]1(c2ccc(OC(F)(F)F)cc2)CCOc2cccnc21)c1nc2ccccc2[nH]1` [Example 241, (S)-N-(4-(4-(trifluoromethoxy)phenyl)-3,4-dihydro-2H-pyrano[3,2-b]pyridin-4-yl)-1H-benzo[d]imidazole-2-carboxamide formate], under setting [1], the IC50 is 769 nM.

Regarding `O=C(N[C@]1(c2ccc(OC(F)(F)F)cc2)CCOc2cccnc21)c1n[nH]c2ncccc12` [Example 242, (S)-N-(4-(4-(trifluoromethoxy)phenyl)-3,4-dihydro-2H-pyrano[3,2-b]pyridin-4-yl)-1H-pyrazolo[3,4-b] pyridine-3-carboxamide formate], the half-inhibitory concentration (IC50) under setting [1] was found to be 5.55 nM.

Consider `O=C(N[C@]1(c2ccc(OC(F)(F)F)cc2)CCOc2cccnc21)c1cn2ncccc2n1` [Example 243, (S)-N-(4-(4-(trifluoromethoxy)phenyl)-3,4-dihydro-2H-pyrano[3,2-b]pyridin-4-yl)imidazo[1,2-b] pyridazine-2-carboxamide formate], for which the IC50 under setting [1] is 16.6 nM.

Consider `O=C(N[C@]1(c2ccc(OC(F)(F)F)cc2)CCOc2cccnc21)c1cnn2cccnc12` [Example 244, (S)-N-(4-(4-(trifluoromethoxy)phenyl)-3,4-dihydro-2H-pyrano[3,2-b]pyridin-4-yl)pyrazolo[1,5-a] pyrimidine-3-carboxamide formate], for which the concentration for half-maximal inhibition (IC50) under setting [1] was 52.1 nM.

With `O=C(N[C@]1(c2ccc(OC(F)(F)F)cc2)CCOc2cccnc21)C1Cc2ccccc2N1` (stereo partly drawn) [Example 245, N-((S)-4-(4-(trifluoromethoxy)phenyl)-3,4-dihydro-2H-pyrano[3,2-b]pyridin-4-yl)indoline-2-carboxamide formate], the IC50 under setting [1] stood at 254 nM.

In the case of `O=C(N[C@]1(c2ccc(OC(F)(F)F)cc2)CCOc2cccnc21)C1Cc2ccccc2O1` (stereo partly drawn) [Example 246, N-((S)-4-(4-(trifluoromethoxy)phenyl)-3,4-dihydro-2H-pyrano[3,2-b]pyridin-4-yl)-2,3-dihydrobenzo furan-2-carboxamide formate], the IC50 under setting [1] was determined as 94.4 nM.

Take `O=C(N[C@]1(c2ccc(OC(F)(F)F)cc2)CCOc2cccnc21)c1nccc2ccccc12` [Example 247, (S)-N-(4-(4-(trifluoromethoxy)phenyl)-3,4-dihydro-2H-pyrano[3,2-b]pyridin-4-yl)isoquinoline-1-carboxamide formate]: the half-inhibitory concentration (IC50) under setting [1] worked out at 30 nM.

As to `O=C(N[C@]1(c2ccc(OC(F)(F)F)cc2)CCOc2cccnc21)c1cc2ccccc2cn1` [Example 248, (S)-N-(4-(4-(trifluoromethoxy)phenyl)-3,4-dihydro-2H-pyrano[3,2-b]pyridin-4-yl)isoquinoline-3-carboxamide formate], the IC50 under setting [1] came out at 24 nM.

Regarding `O=C(N[C@]1(c2ccc(OC(F)(F)F)cc2)CCOc2cccnc21)c1cccc2cnccc12` [Example 249, (S)-N-(4-(4-(trifluoromethoxy)phenyl)-3,4-dihydro-2H-pyrano[3,2-b]pyridin-4-yl)isoquinoline-5-carboxamide formate], the IC50 under setting [1] was 99 nM.

As to `O=C(N[C@]1(c2ccc(OC(F)(F)F)cc2)CCOc2cccnc21)c1ccc2cnccc2c1` [Example 250, (S)-N-(4-(4-(trifluoromethoxy)phenyl)-3,4-dihydro-2H-pyrano[3,2-b]pyridin-4-yl)isoquinoline-6-carboxamide formate], under setting [1], the half-inhibitory concentration (IC50) was found to be 15 nM.

`O=C(N[C@]1(c2ccc(OC(F)(F)F)cc2)CCOc2cccnc21)c1ccc2ccccc2n1` [Example 251, (S)-N-(4-(4-(trifluoromethoxy)phenyl)-3,4-dihydro-2H-pyrano[3,2-b]pyridin-4-yl)quinoline-2-carboxamide formate]: the half-inhibitory concentration (IC50) under setting [1] worked out at 56 nM.

In the case of `O=C(N[C@]1(c2ccc(OC(F)(F)F)cc2)CCOc2cccnc21)c1cnc2ccccc2c1` [Example 252, (S)-N-(4-(4-(trifluoromethoxy)phenyl)-3,4-dihydro-2H-pyrano[3,2-b]pyridin-4-yl)quinoline-3-carboxamide formate], the IC50 under setting [1] worked out at 24 nM.

As for `O=C(N[C@]1(c2ccc(OC(F)(F)F)cc2)CCOc2cccnc21)c1ccc2ncccc2c1` [Example 253, (S)-N-(4-(4-(trifluoromethoxy)phenyl)-3,4-dihydro-2H-pyrano[3,2-b]pyridin-4-yl)quinoline-6-carboxamide formate], the half-maximal inhibitory concentration (IC50) under setting [1] came out at 4 nM.

With `O=C(N[C@]1(c2ccc(OC(F)(F)F)cc2)CCOc2cccnc21)c1ccc2cccnc2c1` [Example 254, (S)-N-(4-(4-(trifluoromethoxy)phenyl)-3,4-dihydro-2H-pyrano[3,2-b]pyridin-4-yl)quinoline-7-carboxamide fonnate], under setting [1], the concentration for half-maximal inhibition (IC50) amounted to 25 nM.

On to `O=C(N[C@]1(c2ccc(OC(F)(F)F)cc2)CCOc2cccnc21)c1cnc2ccccc2n1` [Example 255, (S)-N-(4-(4-(trifluoromethoxy)phenyl)-3,4-dihydro-2H-pyrano[3,2-b]pyridin-4-yl)quinoxaline-2-carboxamide formate], for which the half-maximal inhibitory concentration (IC50) under setting [1] amounted to 9 nM.

With `Cn1c(C(=O)N[C@]2(c3ccc(OC(F)(F)F)cc3)CCOc3cccnc32)cc2ccccc21` [Example 256, (S)-1-methyl-N-(4-(4-(trifluoromethoxy)phenyl)-3,4-dihydro-2H-pyrano[3,2-b]pyridin-4-yl)-1H-indole-2-carboxamide formate], the IC50 under setting [1] came out at 48 nM.
